Where two headings read alike, the source gives them in different places.
What was measured:
[1] = tested on: mushroom tyrosinase; test: Mushroom tyrosinase inhibition assay (dopachrome, 475 nm); format: biochemical; conditions: for IC50: mushroom tyrosinase
Description: The ability of the BMTTZD analogs to inhibit mushroom tyrosinase was evaluated in the presence of L-dopa and L-tyrosine as previously described.

[2] = tested on: B16F10 cells; test: Melanin content assay in B16F10 cells; format: cell-based, murine; conditions: 72 h
Description: We examined whether the ability of analogs 1, 3, and 5 to inhibit intracellular tyrosinase activity could affect intracellular melanin levels. B16F10 cells were utilized as mammalian cells. IBMX and α-MSH were used at 200 µM and 1 µM, respectively, to increase melanin biosynthesis. […] For the intracellular melanin content determination, the absorbance at 405 nm was evaluated after 72 h of incubation.
The effect of BMTTZD analogs on melanin biosynthesis was investigated following a previously described method. A 6-well microplate containing 1 × 10^5 B16F10 cells/well was cultivated for 23 h under conditions identical to those of the cell culture. […] After exposure to IBMX and α-MSH, B16F10 cells were cultivated for 72 h at 37 °C. The cells were rinsed 2 times with PBS, treated with 1N-NaOH aqueous solution (100 µL), and cultivated at 60 °C for 1 h. The lysates were moved to a microplate. At 405 nm, the well absorbance was measured utilizing a VersaMax® reader. Each experiment was carried out three times independently.

[3] = target: mushroom tyrosinase (Agaricus bisporus, UniProt C7FF04); test: Kinetic study of mushroom tyrosinase inhibition (Lineweaver–Burk and Dixon plots); format: biochemical
mushroom tyrosinase (Agaricus bisporus, UniProt C7FF04), sequence (C7FF04 1-392): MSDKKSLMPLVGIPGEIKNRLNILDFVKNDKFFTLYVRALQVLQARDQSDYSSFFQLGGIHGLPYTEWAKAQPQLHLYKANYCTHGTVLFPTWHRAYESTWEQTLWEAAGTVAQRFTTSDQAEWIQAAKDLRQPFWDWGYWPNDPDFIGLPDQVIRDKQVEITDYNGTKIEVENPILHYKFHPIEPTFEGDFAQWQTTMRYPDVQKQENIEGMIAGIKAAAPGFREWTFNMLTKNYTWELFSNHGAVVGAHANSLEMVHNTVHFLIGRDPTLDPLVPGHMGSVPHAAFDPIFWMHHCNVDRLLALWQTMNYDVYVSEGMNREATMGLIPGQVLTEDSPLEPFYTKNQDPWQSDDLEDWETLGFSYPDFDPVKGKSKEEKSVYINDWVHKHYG
Description: The initial rate of dopachrome generation was examined at various BMTTZD analog concentrations (0, 1.5, 3, and 6 µM for analog 1; 0, 2, 4, and 8 µM for analogs 2 and 5; and 0, 0.05, 0.1, and 0.2 µM for 3) with 0.5, 1, 2, 4, 8, or 16 mM L-dopa as substrates using mushroom tyrosinase. Plotting the reciprocal of the dopachrome formation rate against the inverse of the L-dopa concentration produced Lineweaver–Burk plots (Figure 2). Each Lineweaver–Burk plot created four straight lines with different slopes. For analogs 1 and 3, the four straight lines met at a point on the y-axis, whereas for analogs 2 and 5, the four straight lines converged at a point in the second quadrant.
The Dixon plots produced lines that met in the second quadrant. The x-coordinate of the convergence position represents the inhibition constant (Ki) of the ligand.
Lineweaver–Burk (L-B) plots were acquired for the kinetic analysis of analogs against mushroom tyrosinase as previously described. In brief, 10 µL of a solution of DMSO and BMTTZD analogs 1–3 or 5 (final concentrations: 0, 1.5, 3, and 6 µM for analog 1; 0, 2, 4, and 8 µM for analogs 2 and 5; and 0, 0.05, 0.1, and 0.2 µM for analog 3) in each well of a 96-well plate was mixed with 20 µL of aqueous mushroom tyrosinase solution (200 units/mL) and 170 µL of an aqueous substrate mixture (various concentrations of L-dopa (final concentrations: 16, 8, 4, 2, 1 and 0.5 mM) and 17.2 mM sodium phosphate buffer (pH 6.5)). During incubation (15 min at 37 °C), the increase in the well absorbance (ΔOD475/min) was calculated at 1 min intervals utilizing a VersaMax® reader.

[4] = target: T1, B16F10 cellular tyrosinase (Mus musculus, UniProt P11344); test: Cellular tyrosinase activity assay in B16F10 cells stimulated with IBMX plus α-MSH; format: cell-based, murine; conditions: 72 h
T1 construct: host or cells: B16F10 cells
T1 sequence (P11344 19-533): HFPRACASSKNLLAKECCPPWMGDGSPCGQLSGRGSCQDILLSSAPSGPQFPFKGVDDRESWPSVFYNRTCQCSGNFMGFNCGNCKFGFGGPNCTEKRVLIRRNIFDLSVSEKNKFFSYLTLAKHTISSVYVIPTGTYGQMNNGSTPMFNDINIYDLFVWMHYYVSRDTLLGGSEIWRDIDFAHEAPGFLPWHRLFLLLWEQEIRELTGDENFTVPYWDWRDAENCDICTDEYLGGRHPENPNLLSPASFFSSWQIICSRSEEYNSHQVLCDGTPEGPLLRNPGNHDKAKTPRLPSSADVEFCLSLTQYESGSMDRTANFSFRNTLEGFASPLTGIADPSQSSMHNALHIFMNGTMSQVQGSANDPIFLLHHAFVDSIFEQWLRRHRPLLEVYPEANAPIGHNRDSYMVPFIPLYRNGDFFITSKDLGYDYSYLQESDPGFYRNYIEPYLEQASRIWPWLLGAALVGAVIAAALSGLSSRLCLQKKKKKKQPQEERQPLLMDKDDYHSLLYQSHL
Description: Analogs 1, 3, and 5 were exposed to B16F10 cells at various concentrations (20, 10, 5, and 0 µM) before exposure to IBMX (200 µM; 3-isobutyl-1-methylxanthine) and α-MSH (1 µM; α-melanocyte-stimulating hormone). After incubation (72 h), B16F10 cellular tyrosinase activity was determined. […] It was examined whether the cellular tyrosinase inhibition of the BMTTZD analogs could influence B16F10 cellular melanin contents.
Effects on B16F10 tyrosinase inhibition were evaluated as previously described. A 6-well plate containing 1 × 10^5 B16F10 cells/well was cultivated for 23 h under conditions identical to those of the cell culture. […] The cells were cultivated for 72 h. After washing 2 times with PBS, the cells were lysed in a 100 µL lysis buffer, including phenylmethylsulfonyl fluoride (5 µL; 1 mM), Triton X-100 (5 µL; 1%), and phosphate buffer (90 µL; 50 mM (pH 6.5)). After 30 min incubation at −80 °C, the cell lysates were centrifuged at 4 °C for 30 min. The supernatants (80 µL) of the lysates were moved to each well of a microplate and mixed with 20 µL 10 mM L-dopa.

[5] = DPPH radical scavenging activity assay; conditions: 500 µM
Description: First, the ability of BMTTZD analogs 1–8 to scavenge DPPH radicals was examined using L-ascorbic acid (vitamin C; positive control). All samples were tested at 500 µM.
The ability of the BMTTZD analogs to scavenge DPPH radicals was evaluated as previously reported. To each well of a 96-well plate containing analogs 1–8 (5 mM in […]; 20 µL) was added a DPPH solution (0.2 mM in methanol; 180 µL). The mixture was kept in a place without light for 30 min at 25°C to generate DPPH radicals. The well absorbance at 517 nm was measured utilizing a VersaMax® reader. The ability of the analogs to remove DPPH radicals was compared to that of vitamin C.

CN1C(=O)/C(=C/c2ccc(O)cc2O)SC1=S [Analog 3, (Z)-5-(2,4-Dihydroxybenzylidene)-3-methyl-2-thioxothiazolidin-4-one]
tyrosinase inhibition, fold stronger than kojic acid ([1]; substrate L-dopa): 22 fold
IC50 ([1]; substrate L-dopa, read-out: IC50 (Mean ± SEM, µM) L-Dopa): 1.12 ± 0.06 µM
tyrosinase inhibition, times stronger than kojic acid ([1]; substrate L-tyrosine): 220 times
IC50 ([1]; substrate L-tyrosine, read-out: IC50 (Mean ± SEM, µM) L-Tyrosine): 0.08 ± 0.02 µM
decrease of intracellular melanin contents ([2]; 20 µM, IBMX plus α-MSH (raised melanin 4.4-fold)): 2.0 fold
effect on intracellular melanin contents enhanced by IBMX plus α-MSH ([2]; 5, 10, 20 µM): significantly reduced the melanin contents
type of tyrosinase inhibition (Lineweaver–Burk plots) ([3]; substrate L-dopa 0.5–16 mM): competitive inhibitors
Ki ([3]; substrate L-dopa, read-out: inhibition constant (Ki) from Dixon plots): 47 nM
effect on stimulator-induced cellular tyrosinase activity ([4]; 5, 10, 20 µM, IBMX plus α-MSH): concentration-dependently and significantly reduced
cellular tyrosinase inhibition compared with kojic acid (20 µM) ([4]; analog at 10 µM): slightly more strongly than kojic acid
cellular tyrosinase inhibition compared with kojic acid (20 µM) ([4]; analog at highest concentration tested (20 µM)): stronger inhibitory effects than kojic acid
DPPH radical scavenging activity [5]: 82%

From publication PMC11206987, “Investigation of the Efficacy of Benzylidene-3-methyl-2-thioxothiazolidin-4-one Analogs with Antioxidant Activities on the Inhibition of Mushroom and Mammal Tyrosinases” (Molecules, 2024)
